Results as given in patent publication US5591734A, “17-(3-furyl)-5β, 14β-androstane derivatives active on the cardiovascular system, processes for their preparation and pharmaceutical compositions containing same” (Sigma-Tau Industrie Farmaceutiche Riunite S.p.A., priority 1992, dated 1997).
Counter-ions that a name gives are not always drawn. Like-named read-outs stand apart in the source and are kept apart here.

Key:
[1] = target: T1, purified Na^+,K^+ -ATPase (Homo sapiens, UniProt P05023); assay: biochemical
T1 construct: receptor purified according to Jorghensen (Jorghensen P., BBA, 1974, 356, 36); from tissue; kidney outer medulla inferred from the cited Jorgensen method
Excerpt: (§1) To test the affinity for the receptor site of the Na^+,K^+ -ATPase and the inhibitory activity on the enzyme, the following tests were used: a) displacement of the specific ^3 H-ouabain binding from the Na^+,K^^+ -ATPase receptor purified according to Jorghensen (Jorghensen P., BBA, 1974, 356, 36) and Erdmann (Erdmann E. et al., Arzneim. Forsh., 1984, 34, 1314); b) inhibition of the activity of the purified Na^+,K^+ -ATPase measured as % of hydrolysis of ^32 P-ATP in presence and in absence of the tested compound (Mall F. et al., Biochem. Pharmacol., 1984, 33, 47).

[2] = tested on: spontaneous hypertensive rats of the Milan (MHS); assay: antihypertensive activity in spontaneous hypertensive rats (MHS), indirect tail-cuff method; type: in vivo, rat; conditions: 10 mg/Kg/os daily for ten days in Methocel 0.5% w/v, 7 rats; for SBP (SYSTOLIC BLOOD PRESSURE FALL IN SPONTANEOUS HYPERTENSIVE RATS (MHS)): controls 172 +/- 2.0; for HR (heart rate): controls 328 +/- 8.6
[3] = target: T2, Na^+,K^+ -ATPase receptor (Homo sapiens, UniProt P05023); assay: displacement of the specific ^3 H-ouabain binding from the purified Na^+,K^+ -ATPase receptor; conditions: ^3 H-ouabain displacement, read-out: Binding ^3 H-Ouab. Displacement log IC50 (converted)
T2 construct: receptor purified according to Jorghensen (Jorghensen P., BBA, 1974, 356, 36); from tissue; kidney outer medulla inferred from the cited Jorgensen method
Excerpt: as §1

[4] = purified Na^+,K^+ -ATPase, ^32 P-ATP hydrolysis, read-out: Inhibitory Activity log IC50 (converted)

| SMILES | IC50 [1, 4] [µM] | SBP (SYSTOLIC BLOOD PRESSURE FALL IN SPONTANEOUS HYPERTENSIVE RATS (MHS)) [2] | HR (heart rate) [2] | IC50 [3] [µM] | IC50 [1] [µM] |
| --- | --- | --- | --- | --- | --- |
| C[C@]12CC[C@H](O)C[C@H]1CC[C@@H]1[C@@H]2CC[C@]2(C)[C@@](O)(c3ccoc3)CC[C@]12O [Comp. I-a, 17β(3-Furyl)-5β-androstane-3β,14β,17α-triol] | 31.6 | 149 +/- 4.3 mm Hg | 318 +/- 10.2 beats/min. | 1.58 |  |
| C[C@]12CC[C@H](OCCO)C[C@H]1CC[C@@H]1[C@@H]2CC[C@]2(C)[C@@](O)(c3ccoc3)CC[C@]12O [Comp. I-b, 3β-(2-Hydroxyethoxy)-17β-(3-furyl)-5β-androstane-14β,17α-diol] | 25.1 |  |  | 3.16 |  |
| C[C@]12CC[C@H](OCCCN)C[C@H]1CC[C@@H]1[C@@H]2CC[C@]2(C)[C@@](O)(c3ccoc3)CC[C@]12O [Comp. I-c, 3β-(3-Aminopropoxy), 17β-(3-furyl)-5β-androstane-14β,17α-diol] | 7.94 |  |  | 0.501 |  |
| C[C@]12CC[C@H](OCCN3CCCC3)C[C@H]1CC[C@@H]1[C@@H]2CC[C@]2(C)[C@@](O)(c3ccoc3)CC[C@]12O [Comp. I-d, 3β-(2-(1-Pyrrolidinyl)ethoxy)-17β-(3-furyl)-5β-androstane-14β,17α-diol] | 15.8 | 158 +/- 2.5 mm Hg | 325 +/- 9.3 beats/min. | 0.631 |  |
| CO[C@]1(c2ccoc2)CC[C@]2(O)[C@@H]3CC[C@@H]4C[C@@H](OCCN5CCCC5)CC[C@]4(C)[C@H]3CC[C@]12C [Comp. I-f, 3β-(2-(β1-Pyrrolidinyl)ethoxy)-17β-(3-furyl)-17α-methoxy-5β-androstan-14β-ol] | 25.1 |  |  | 5.01 |  |
| C[C@]12CCC(=O)C[C@H]1CC[C@@H]1[C@@H]2CC[C@]2(C)[C@@](O)(c3ccoc3)CC[C@]12O [Comp. I-j] | 79.4 |  |  | 3.98 |  |
| C[C@]12CCC(=NN=C(N)N)C[C@H]1CC[C@@H]1[C@@H]2CC[C@]2(C)[C@@](O)(c3ccoc3)CC[C@]12O [Comp. I-k, 3-Guanidinoimino-17β-(3-furyl)-5β-androstane-14β,17α-diol] | 15.8 |  |  | 1 |  |
| C[C@]12CC[C@H](O)C[C@H]1CC[C@@H]1[C@@H]2CC[C@]2(C)[C@@](O)(c3ccnnc3)CC[C@]12O [Comp. I-n, 17β-(4-Pyridazinyl)-5β-androstane-3β,14β,17α-triol] | 25.1 |  |  | 2.51 |  |
| C[C@]12CC[C@H](SCCCN)C[C@H]1CC[C@@H]1[C@@H]2CC[C@@]2(C)[C@@]13O[C@@H]3C[C@]2(O)c1ccoc1 [Comp. I-r, 3β-(3-Aminopropylthio)-14β,15β-epoxy-17β-(3-furyl)-5β-androstan-17α-ol oxalate] | 31.6 | 154 +/- 2.4 mm Hg | 320 +/- 9.6 beats/min. | 3.98 |  |
| C[C@]12CC[C@H](OCCOCCN3CCCC3)C[C@H]1CC[C@@H]1[C@@H]2CC[C@]2(C)[C@@](O)(c3ccoc3)CC[C@]12O [Comp. I-w, 3β-(2-(2-(1-Pyrrolidinyl)ethoxy)ethoxy)-17β-(3-furyl)-5β-androstane-14β,17α-diol] | 3.98 |  |  | 0.631 |  |
| CNCCO[C@H]1CC[C@@]2(C)[C@H](CC[C@@H]3[C@@H]2CC[C@]2(C)[C@@](O)(c4ccoc4)CC[C@]32O)C1 [Comp. I-x, 3β-(2-Methylaminoethoxy)-17β-(3-furyl)-5β-androstane 14β,17α-diol] | 10 |  |  | 0.501 |  |
| C[C@]12CC[C@H](OCCCNC(=N)N)C[C@H]1CC[C@@H]1[C@@H]2CC[C@]2(C)[C@@](O)(c3ccoc3)CC[C@]12O [Comp. I-y, 3β(3-Guanidinopropoxy)-17β-(3-furyl)-5β-androstane-14β,17α-diol] |  |  |  | 0.501 | 6.31 |
| C[C@]12CC[C@H](OCC(N)CN)C[C@H]1CC[C@@H]1[C@@H]2CC[C@]2(C)[C@@](O)(c3ccoc3)CC[C@]12O (stereo partly drawn) [Comp. I-z, 3β-(2,3-Diaminopropoxy)-17β-(3-furyl)-5β-androstane-14β,17α-diol] |  |  |  | 0.631 | 5.01 |
| C[C@]12CC[C@H](O)C[C@H]1CC[C@@H]1[C@@H]2CC[C@]2(C)[C@@](O)(C3=CC(=O)OC3)CC[C@]12O [Ref. Comp., 3β,14β,17α-trihydroxy-5β-card-20(22)-enolide, reference compound] |  |  | 334 +/- 11.7 beats/min. |  |  |
